Data on five compounds can be found in patent publication US9969887B2, “Merocyanine-based compounds, and dyes, kits and contrast medium compositions for labelling biomolecules comprising the same” (SFC CO., LTD., priority 2016, dated 2018).

Series [1] in a line: Absorption and emission spectra, molar extinction coefficient and quantum efficiency in solvent. The class given is physicochemical. As for the experimental part: Absorption spectra (λabs), emission spectra (λem), molar extinction coefficient (ε) and quantum efficiency of compounds 1 to 8 obtained in Preparation Examples 1 to 4, and commercially available SYBR® safe were measured and shown in Table 1 below.
Absorption spectra (λabs), emission spectra (λem), molar extinction coefficient (ε) and quantum efficiency of Compounds 36 to 39 obtained in Preparation Examples 6 and 7 and commercially available SYBR® safe were measured and shown in Table 2 below.

For series [2], the system named is Salmonella typhimurium TA98 strain. As to the kind of experiment: Ames test with S9 mixture. Conditions: for Number of colonies per plate: TA98, S9 mixture. On the technique in general: In the Ames test, an excess of revertant colonies over the control signals mutagenicity.
A further series deals with DNA. Put plainly: Absorption and emission spectra and quantum efficiency in the presence of DNA. The series is classed as physicochemical. As for the experimental part: Absorption spectra (λabs), emission spectra (λem) and quantum efficiency measured in the presence of DNA with compounds 1 to 8 and 36 to 39, and commercially available SYBR® safe were measured and are shown in Table 3 below.

Series [3] can be described thus: Thermal stability test, absorbance on standing at 95° C. in PCR reaction buffer. The class given is physicochemical. On the procedure: In order to confirm the stability of the fluorescent dye in the PCR reaction, 20 μL of PCR reaction buffer containing 1 μL of Compound 38 and 1 μL of EvaGreen™ (Biotium), respectively, was prepared. Each PCR reaction buffer was heated to 95° C., and the absorbance which varies with the standing time at 95° C. was measured.

Another series in a line: Photobleaching test. Conditions: low concentration. The class given is physicochemical. On the procedure: Real-Time PCR was performed in a 20 μL reaction solution containing only 5 μL of fluorescent dyes (Compound 38, SYBR® green I (Invitrogen) or EvaGreen™ (Biotium)) at various concentrations (dilution times). Cycles of 30 seconds at 25° C. and 30 seconds at 25° C. were repeated 60 times. Fluorescence intensity was measured for each cycle (1 minute) to observe photobleaching of fluorescent dyes at various concentrations (dilution times).

The subject of another series is Hela cells. As to the kind of experiment: Cell permeability test. The class given is cell-based. The conditions noted are these: 1 μM, 37° C., 30 minutes, microscope. On the procedure:
Hela cells were cultured in MEM medium containing 10% fetal bovine serum (FBS) and 1% penicillin/streptomycin (10,000 units penicillin and 10,000 μg/mL streptomycin, Invitrogen) under a humidified atmosphere of CO2 at 37° C. Hela cells were washed with medium No. 3, and 1 μM of SYBR® safe and Compound 6 were treated with Hela Cells and cultured at 37° C. for 30 minutes.

“Also recorded” adds a separate entry of the source.

`O=C(CCCCCN1C=CC2=C3c4sc5ccc(Cl)cc5[n+]4CCC3Oc3cccc1c32)NCCOCCOCCNC(=O)CCCCCN1C=CC2=C3c4sc5ccc(Cl)cc5[n+]4CCC3Oc3cccc1c32` (centres unmarked) [Compound 6]: in series [1] (DMSO), the Quantum efficiency worked out at 0.62, the “ε (molar extinction coefficient)” value is 70,000 M^−1cm^−1, the λabs is 517 nm and the λem is recorded as 563 nm. Moreover, in series [1] (buffer), the Quantum efficiency is 0.04, the “ε (molar extinction coefficient)” value is given as 60,000 M^−1cm^−1, the λabs is listed as 484 nm and the λem turned out to be 564 nm. Also, the “Number of colonies per plate” value in series [2] (8 μg/plate) stood at 24 ± 6. Besides, the “Number of colonies per plate” value in series [2] (40 μg/plate) is reported as 57 ± 3. For the same compound, the “genotoxicity (Ames test), in words” value in series [2] (TA98, S9 metabolic activity) is on record as “no significant increase in colony counts; also recorded: lower genotoxicity than SYBR® safe”. In the series on DNA, the Quantum efficiency came out at 0.73, the λabs is given as 517 nm and the λem turned out to be 538 nm.

With `O=C(CCCCCN1C=CC2=C3c4oc5ccccc5[n+]4CCC3Oc3cccc1c32)NCCOCCOCCOCCNC(=O)CCCCCN1C=CC2=C3c4oc5ccccc5[n+]4CCC3Oc3cccc1c32` (centres unmarked) [Compound 38], the figures for the Quantum efficiency (in series [1] (DMSO); in series [1] (buffer); with DNA) were 0.67, 0.17 and 0.76, respectively. For the same compound, the “ε (molar extinction coefficient)” value is 110,000 M^−1cm^−1 in series [1] (DMSO) and 95,000 M^−1cm^−1 in series [1] (buffer). The λabs in series [1] (DMSO) is 492 nm; in series [1] (buffer), 459 nm; with DNA, 492 nm. Moreover, the results for the λem (in series [1] (DMSO); in series [1] (buffer); in the series on DNA) were 520 nm, 522 nm and 512 nm, respectively. Besides, the high temperature stability result in series [3] (95° C., compared with EvaGreen) was “greater than EvaGreen™”. Also, the Absorbance in series [3] (standing time 0 hr at 95° C.) was found to be 0.127; in series [3] (standing time 0.5 hr at 95° C.), 0.149; in series [3] (standing time 1 hr at 95° C.), 0.162; in series [3] (standing time 2 hr at 95° C.), 0.163; in series [3] (standing time 3 hr at 95° C.), 0.178.

With `CC[n+]1c(-c2ccccc2)c2cc(N)ccc2c2ccc(N)cc21.[Br-]` [EtBr, ethidium bromide, reference compound], the “Number of colonies per plate” value in series [2] (40 μg/plate) is 3051 ± 181.

In the case of `CCCN(CCCN(C)C)c1cc(/C=C2/Sc3ccccc3N2C)c2ccccc2[n+]1-c1ccccc1` [SYBR ® green I], the “half-life (photobleaching)” value in “Photobleaching test” amounted to 5.5 h.

Turning to `CCC[n+]1ccc(/C=C2\Sc3ccccc3N2C)c2ccccc21` [SYBR ® safe, reference compound], in the series on Hela cells, the cell permeability entry is “shows cell permeability”. Besides, in series [1] (DMSO), the Quantum efficiency turned out to be 0.006, the “ε (molar extinction coefficient)” value is 77,000 M^−1cm^−1 and the λabs came out at 509 nm. In series [1] (buffer), the Quantum efficiency was determined as 0.006, the “ε (molar extinction coefficient)” value is 57,000 M^−1cm^−1 and the λabs turned out to be 502 nm. In addition, the “Number of colonies per plate” value in series [2] (1.6 μg/plate) was 81 ± 7. Also, in the series with DNA, the Quantum efficiency worked out at 0.021, the λabs is 503 nm and the λem is reported as 535 nm.
